Measurements reported in patent US7888329B2, “Substituted aryl piperidinylalkynyladenosines as A2AR agonists” (PGxHealth, LLC, priority 2006, dated 2011).
Where two headings read alike, the source gives them in different places.

How the values were obtained:
[1] = system: Purified human neutrophils; experiment: Luminol enhanced chemiluminescence (neutrophil oxidative activity), fMLP stimulated; type: cell-based; conditions: read-out: Functional
[2] = molecular target: T1, human A3 AR (Homo sapiens, UniProt P0DMS8); experiment: Radioligand competition binding with 125I-ABA, membranes of HEK 293 cells stably expressing the receptor; conditions: Ki derived from IC50, class symbols
T1 construct: expressed in transfected cells; membranes
T1 sequence (P0DMS8 1-318): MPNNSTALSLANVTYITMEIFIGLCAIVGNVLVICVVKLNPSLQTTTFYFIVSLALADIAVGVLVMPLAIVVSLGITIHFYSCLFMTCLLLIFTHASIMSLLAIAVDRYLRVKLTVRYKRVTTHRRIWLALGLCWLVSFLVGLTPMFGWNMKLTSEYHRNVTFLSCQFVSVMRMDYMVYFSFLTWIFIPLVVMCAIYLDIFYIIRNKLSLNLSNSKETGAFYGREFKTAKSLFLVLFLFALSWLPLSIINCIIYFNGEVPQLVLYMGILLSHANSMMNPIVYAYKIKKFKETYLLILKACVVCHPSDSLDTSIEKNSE
Outline: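 Triplicate binding with 25 μg membrane protein and 0.5-1 nM agonist radioligand in HE buffer with 1 U/mL adenosine deaminase and 5 mM MgCl2, ±50 μM GTPγS, 3 h at room temperature, then filtration. Nonspecific binding with 50 μM NECA; Ki from IC50 corrected for radioligand and competitor depletion.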

[3] = molecular target: T2, recombinant human A2A receptors (Homo sapiens, UniProt P29274); experiment: Radioligand competition binding with 125I-APE or 125I-ZM241385, Sf9 cell membranes; conditions: 125I-APE or 125I-ZM241385, Sf9 membranes; class symbols
T2 construct: expressed in transfected cells; host or cells: Sf9 insect cells infected with virus; membranes
T2 sequence (P29274 whole entry): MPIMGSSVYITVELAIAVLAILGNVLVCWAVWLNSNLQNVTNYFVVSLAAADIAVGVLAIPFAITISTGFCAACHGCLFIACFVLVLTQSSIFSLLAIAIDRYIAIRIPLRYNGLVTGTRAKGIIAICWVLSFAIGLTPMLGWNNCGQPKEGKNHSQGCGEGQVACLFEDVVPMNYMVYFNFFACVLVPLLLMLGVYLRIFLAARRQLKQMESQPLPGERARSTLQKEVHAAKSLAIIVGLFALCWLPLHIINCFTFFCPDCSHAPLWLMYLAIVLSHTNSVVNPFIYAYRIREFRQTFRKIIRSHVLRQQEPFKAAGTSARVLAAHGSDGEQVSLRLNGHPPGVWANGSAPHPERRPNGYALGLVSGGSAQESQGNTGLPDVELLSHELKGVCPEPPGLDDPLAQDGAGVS
Outline: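 Membranes (5 μg for A2A; 25 μg for A1) incubated with radioligand at room temperature, 3 h for agonists or 2 h for antagonists, in HE buffer with 1 U/mL adenosine deaminase and 5 mM MgCl2, ± 50 μM GTPγS. Assays ended by filtration; nonspecific binding defined with 50 μM NECA.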

[4] = molecular target: T3, human A1 AR (Homo sapiens, UniProt P30542); experiment: Radioligand competition binding with 125I-ABA, membranes of CHO K1 cells stably expressing the receptor; conditions: Ki derived from IC50, class symbols
T3 construct: expressed in transfected cells; membranes
T3 sequence (P30542 1-326): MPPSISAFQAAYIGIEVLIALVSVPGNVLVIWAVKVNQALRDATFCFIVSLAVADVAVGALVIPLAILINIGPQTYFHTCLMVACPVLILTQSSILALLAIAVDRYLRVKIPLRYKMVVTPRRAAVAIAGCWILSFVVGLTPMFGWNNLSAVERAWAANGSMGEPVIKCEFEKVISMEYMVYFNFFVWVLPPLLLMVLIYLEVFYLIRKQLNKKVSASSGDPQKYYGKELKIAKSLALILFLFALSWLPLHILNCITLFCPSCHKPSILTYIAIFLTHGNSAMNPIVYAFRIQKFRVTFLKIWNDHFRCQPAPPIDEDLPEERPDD

Compound	EC50 ([1]; Homo sapiens, Neutrophil) [µM]	Ki [2] [µM]	Ki [3] [µM]	Ki [4] [µM]	EC50 ([1]; EC50 of peak chemiluminescence, human PMN, rolipram 100 nM, fMLP, three donors, class symbols) [µM]
Nc1nc(C#CCC2CCN(C(=O)Oc3ccc(Br)cc3Br)CC2)nc2c1ncn2[C@@H]1O[C@H](C(=O)NC2CC2)C(O)[C@@H]1O (some centres unmarked) [Compound 57, N-Cyclopropyl 2-{3-[1-(2,4-bromophenoxycarbonyl)-4-piperidinyl]-1-propyn-1-yl}adenosine-5′-uronamide]	< 0.01	< 0.1	< 0.001	< 0.1	
N-Cyclopropyl 2-{3-[1-((4-amino)benzyloxycarbanoyl)-4-piperidinyl]propyn-1-yl}adenosine-5′-uronamide [Compound 48]		> 0.1	< 0.01	> 0.1	< 0.01
